Test results: patent US12678451B2, “Cannabinoid and omega fatty acid compositions and methods of using” (GreenWay Herbal Products, LLC, priority 2019, dated 2026)

Assays:
DPPH antioxidant assay = type: biochemical
Description: The ability of the cannabinoids to act as potential antioxidants was assessed using the 2,2-diphenyl-1-picrylhydrazyl (DPPH) antioxidant assay. The cannabinoids CBDA, CBD, CBDVA, CBDV, CBG, THCV, and the 1:1 CBD:CBDA mixture had the highest antioxidant activities with radical scavenging activities of 38.19%, 48.00%, 43.81%, 44.21%, 44.28%, 45.71%, and 43.74%, respectively.
The 2,2-diphenyl-1-picrylhydrazyl (DPPH) free radical (Alfa Aesar) was prepared at 0.1 mM in ethanol. The cannabinoids were tested at a final concentration of 100 uM. 2 uL of 7.5 mM stock solutions of the cannabinoids to be tested in DMSO were added to 148 uL of 0.1 mM DPPH to achieve a final concentration of 100 μM in the assay. Ascorbic acid (Thermo Scientific) at a final concentration of 10 mg/ml was used as a positive control. The reaction mixture was incubated in the dark at room temperature for 1 hour, the absorbance of the mixture was read at 517 nm using a Spectra Max 5M microplate reader (Molecular Devices, LLC, Sunnyvale, Calif., USA) and the absorbance was converted to percent radical scavenging activity (% RSA) using the following formula: % RSA=[(Absorbance of the control−Absorbance of the sample)/(Absorbance of the control)]×100.
Free radical production occurs when the immune system is activated and antioxidants represent potential effective treatments for inflammatory conditions and autoimmune diseases. […] The DPPH antioxidant assay can be used to measure the ability of a compound to scavenge free radicals by measuring the ability of compounds to hydrogenate and reduce DPPH. The DPPH assay was conducted on CBCA, CBDA, CBDVA, CBGA, CBLA, CBNA, THCVA, and their decarboxylated derivatives as well as the 1:1 CBD:CBDA mixture.

[1] = tested on: differentiated U-937 cells; experiment: Human cellular U-937 autophagy induction assay (anti-LC3); type: cell-based; conditions: for activation at 1 µM: Homo sapiens, U-937, 12 h, read-out: Induction of autophagy with respect to the untreated control
Description: The induction of autophagy was monitored using anti-LC3 antibodies to detect LC3 on the autophagosome in human U-937 pro-monocytic histiocytic lymphoma cells (ATCC, Manassas, Va., USA), which generate morphologies characteristic of macrophages upon induction by various stimuli. U-937 cells were cultured in RPMI-1640 medium with L-glutamine and sodium bicarbonate (Sigma-Aldrich, St Louis, Mo.) supplemented with 10% fetal bovine serum (FBS) and 1% penicillin in 25 cm2 tissue flasks at 37° C. in a 5% CO2 humidified atmosphere and passaged every 2-3 days. U-937 cells were seeded in 96 well plates at 5×10^5 cells/mL and stimulated with 100 ng/mL PMA to induce differentiation for 24 hours. The cells were then treated with the various cannabinoids at 1.0 μM concentrations for 12 hours. 30 μM chloroquine was used as a positive control. After treatment, the cells were fixed using 3.7% formaldehyde in PBS for 15 minutes at room temperature and washed with PBS to remove the fixative. Permeabilization reagent (0.2% Triton X-100 in PBS) (Sigma-Aldrich) was added, the cells were incubated for 15 minutes at room temperature and then the cells were washed with PBS to remove the permeabilization reagent. LC3B rabbit polyclonal antibody (Invitrogen) was added at a final concentration of 0.5 μg/ml for 1 hour at room temperature and the cells were washed with PBS remove the primary antibody. Secondary conjugated goat anti-rabbit polyclonal antibody (Thermo Scientific) was then added at a final concentration of 2.0 μg/ml for 1 hour at room temperature. The cells were washed, Hoechst dye was added to stain the nucleus and the cells were imaged using an Arrayscan VTI high-content screening (HCS) reader (Thermo Scientific) with the appropriate filters and the data was analyzed using the vHCS Scan software.
Chloroquine at a concentration of 30 μM was included as a positive control. The ability to induce autophagy was determined as a percentage with respect to the untreated control.

[2] = tested on: cytokine levels in differentiated THP-1 cells treated with LPS; experiment: THP-1 human cellular LPS cytokine assay, three independent experiments, total averaged suppression; conditions: for inhibition at 2 µM: Homo sapiens, THP-1, 4 h, read-out: % Cytokine Suppression (total averaged)
Description: Cells were seeded onto 24-, or 12-well plates and incubated for 48 hours to 72 hours to allow for differentiation. […] Supernatants were collected for quantification of human cytokine levels to assess the cytokine response. Cells remaining after the supernatant collection were tested to ensure they had at least 90% viability as determined by Alamar Blue assays. To conduct the Alamar Blue assays, supernatants were replaced with culture medium containing 1× Alamar Blue reagent and incubated overnight. Cell viability was assessed by measuring relative fluorescent units (RFU) on the SpectraMax M2e microplate reader (Molecular Devices Inc., Sunnyvale, Calif., USA) at Excitation 560 nm and Emission 590 nm. Controls included untreated cells with DMSO at the same concentration as the treated cells, LPS stimulated cells with DMSO at the same concentration as the treated cells and LPS stimulated cell with the various treatments. The levels of 42 of the most common human cytokines (Eve Technologies, Calgary, Canada Table 6) were determined by multi-plex analysis.
For this reason, the level of cytokine suppression was determined for each cytokine by each cannabinoid that was tested and the total averaged suppression for each cannabinoid was determined by dividing the total suppression by the number of the cytokines that were analyzed.

Structure (SMILES) | % RSA (radical scavenging activity) (DPPH antioxidant assay; 10 mg/ml, positive control) | % RSA (radical scavenging activity) (DPPH antioxidant assay; 100 μM, 1 hour) | Fluorescence (LC3) ([1]; 1.0 μM, 12 hours) | activation at 1 µM [1] | inhibition at 2 µM [2] | effectiveness at reducing elevated cytokine levels relative to dexamethasone [2] | radical scavenging activity compared to the untreated control (DPPH antioxidant assay; 100 μM) | Fluorescence (LC3) ([1]; 30 uM, positive control)
O=C1O[C@H]([C@@H](O)CO)C(O)=C1O [Ascorbic acid, reference compound] | 94.00% | – | – | – | – | – | – | –
CCCCCc1cc(O)c2c(c1)OC(C)(CCC=C(C)C)C=C2 (centres unmarked) [CBC, 2-Methyl-2-(4-methyl-3-penten-1-yl)-7-pentyl-2H-chromen-5-ol] | – | 31.95% | 47.84 | -0.85% | 22.6% | – | – | –
CCCCCc1cc2c(c(O)c1C(=O)O)C=CC(C)(CCC=C(C)C)O2 (centres unmarked) [CBCA, 5-Hydroxy-2-methyl-2-(4-methyl-3-penten-1-yl)-7-pentyl-2H-chromene-6-carboxylic acid] | – | 19.02% | 42.61 | -11.7% | 34.6% | at least half as effective as dexamethasone | – | –
C=C(C)C1CCC(C)=CC1c1c(O)cc(CCC)cc1O (centres unmarked) [CBDV, 2-(6-Isopropenyl-3-methyl-2-cyclohexen-1-yl)-5-propyl-1,3-benzenediol] | – | 44.21% | 38.19 | -20.9% | 36.7% | at least half as effective as dexamethasone | at least two-fold | –
C=C(C)[C@@H]1CCC(C)=C[C@H]1c1c(O)cc(CCC)c(C(=O)O)c1O [CBDVA, 2,4-Dihydroxy-3-[(1R,6R)-6-isopropenyl-3-methyl-2-cyclohexen-1-yl]-6-propylbenzoic acid] | – | 43.81% | 39.29 | -18.6% | 32.4% | at least half as effective as dexamethasone | at least two-fold | –
CCCCCc1cc(O)c(C/C=C(\C)CCC=C(C)C)c(O)c1 [CBG, 2-[(2E)-3,7-Dimethyl-2,6-octadien-1-yl]-5-pentyl-1,3-benzenediol] | – | 44.28% | 37.35 | -22.6% | 35.8% | at least half as effective as dexamethasone | at least two-fold | –
CCCCCc1cc(O)c(C/C=C(\C)CCC=C(C)C)c(O)c1C(=O)O [CBGA, 3-[(2E)-3,7-Dimethyl-2,6-octadien-1-yl]-2,4-dihydroxy-6-pentylbenzoic acid] | – | 26.84% | 37.47 | -22.3% | 34.3% | at least half as effective as dexamethasone | – | –
CCCCCc1cc(O)c2c(c1)OC1(C)CCC3C1C2C3(C)C (centres unmarked) [CBL, 1,1,3a-Trimethyl-6-pentyl-1a,2,3,3a,8b,8c-hexahydro-1H-4-oxabenzo[f]cyclobuta[cd]inden-8-ol] | – | 30.84% | 76.86 | 59.3% | 43.6% | at least half as effective as dexamethasone | – | –
CCCCCc1cc2c(c(O)c1C(=O)O)[C@@H]1[C@H]3[C@H](CC[C@@]3(C)O2)C1(C)C [CBLA, (1aS,3aR,8bR,8cR)-8-Hydroxy-1,1,3a-trimethyl-6-pentyl-1a,2,3,3a,8b,8c-hexahydro-1H-4-oxabenzo[f]cyclobuta[cd]indene-7-carboxylic acid] | – | 21.18% | 72.27 | 49.8% | 34.4% | at least half as effective as dexamethasone | – | –
CCCCCc1cc(O)c2c(c1)OC(C)(C)c1ccc(C)cc1-2 [CBN, 6,6,9-Trimethyl-3-pentyl-6H-benzo[c]chromen-1-ol] | – | 33.83% | 40.80 | -15.4% | 37% | at least half as effective as dexamethasone | – | –
CCCCCc1cc2c(c(O)c1C(=O)O)-c1cc(C)ccc1C(C)(C)O2 [CBNA, 1-Hydroxy-6,6,9-trimethyl-3-pentyl-6H-benzo[c]chromene-2-carboxylic acid] | – | 24.92% | 36.89 | -23.5% | 34% | at least half as effective as dexamethasone | – | –
CCN(CC)CCCC(C)Nc1ccnc2cc(Cl)ccc12 (centres unmarked) [Chloroquine, chloroquine, reference compound] | – | – | – | – | – | – | – | 111.20
CCCc1cc(O)c2c(c1)OC(C)(C)[C@@H]1CCC(C)=C[C@@H]21 [THCV, (6aR,10aR)-6,6,9-trimethyl-3-propyl-6H,6aH,7H,8H,10aH-benzo[c]isochromen-1-ol] | – | 45.71% | 42.14 | -12.7% | 34.8% | at least half as effective as dexamethasone | at least two-fold | –
CCCc1cc2c(c(O)c1C(=O)O)[C@@H]1C=C(C)CC[C@H]1C(C)(C)O2 [THCVA, (6aR,10aR)-6a,7,8,10a-tetrahydro-1-hydroxy-6,6,9-trimethyl-3-propyl-6H-Dibenzo[b,d] pyran-2-carboxylic acid] | – | 29.22% | 66.45 | 37.7% | 28.4% | at least half as effective as dexamethasone | – | –
